Assay results: patent US9896718B2, “Herbicide tolerant cotton event pDAB4468.18.07.1” (Dow AgroSciences LLC, priority 2012, dated 2018)
Read-outs that look alike come from different tables or passages of the source.

Columns and labels:
non-transformed cotton = conditions: rates much lower than the lowest rate tested (1120 g ae/ha); known; cited from earlier work
[1] = system: cotton event pDAB4468.18.07.1; assay: Agronomic characterization in field trials with and without herbicide application; type: in vivo, Gossypium hirsutum; conditions: standard field application rates, 2010 field trials
Excerpt: The agronomic characteristics of cotton event pDAB4468.18.07.1 were quantified in field trials conducted across geographically different locations throughout the cotton belt in 2010. These studies compared the agronomic performance of cotton event pDAB4468.18.07.1 (with and without applications of the herbicides 2,4-D and glufosinate) to the non-transgenic near-isoline control, Coker 310. No agronomically meaningful unintended differences were observed between cotton event pDAB4468.18.07.1 and the Coker 310 control plants. […] Additionally, the agronomic performance of cotton event pDAB4468.18.07.1 was not altered as a result of the application of the herbicides, 2,4-D and glufosinate, as compared to the cotton event pDAB4468.18.07.1 plants which were not sprayed with the herbicide treatments. […]
Seeds of cotton event pDAB4468.18.07.1 and seeds of the near-isoline control line, Coker 310, were planted at a rate of 80 seeds per 20 ft row with a row spacing of 34-38 inches (86.36 cm-96.52 cm). […] The measured agronomic characteristics were equivalent for cotton event pDAB4468.18.07.1 as compared to the Coker 310 near-isoline control plants for all of the agronomic characteristics measured and statistically analyzed. […]

[2] = system: cotton event pDAB4468.18.07.1; assay: Tolerance to 2,4-D in field trials (percent visual injury after postemergence application); type: in vivo, Gossypium hirsutum; conditions: for Percent visual injury: postemergence, 2-4 leaf cotton, field
Procedure: The application of 2,4-D on cotton plants at this stage of development represents a herbicide application timing typically utilized to achieve satisfactory weed control by cotton growers.
2,4-D tolerance was measured by assessing cotton plants for injury at 0-1 day after application (DAA), 7-8 DAA, 12-16 DAA, and 24-32 DAA. Measurements for the 0-1 day time increment were taken from 6-24 hours after the application. […] The ratings were a composite score for any herbicide symptomology including epinasty, chlorosis, leaf necrosis and plant death. Herbicide symptomology present at 0-1 DAA was primarily epinasty and symptoms at later evaluations were primarily chlorosis and necrosis.
(§1) Field trials were conducted at eleven locations across the United States in typical cotton producing areas of Alabama, Arkansas, California, Georgia, Louisiana, Mississippi, North Carolina, South Carolina, and Tennessee. Trials were designed with four replications per treatment. Each replication was separated by a bare-soil alley 10-15 feet wide. Plot size for individual treatments was 2 rows by 20 feet long with rows typically spaced 36-40 inches apart. Experimental treatments consisted of cotton event pDAB4468.18.07.1 sprayed with 2,4-D amine (Weedar 64™, NuFarm, Burr Ridge, Ill.) at either 0, 1120, 2240, or 4480 grams acid equivalent per hectare (g ae/ha) applied in 15 gallons per acre of final spray solution. A non-transformed cotton comparator treatment was not included in these experiments since treatment with 2,4-D at rates much lower than the lowest rate tested (1120 g ae/ha) are known to result in plant death.

[3] = system: cotton event pDAB4468.18.07.1; conditions: for % Injury: cotton event pDAB4468.18.07.1, 3 leaf stage
Procedure: The tolerance of cotton event pDAB4468.18.07.1 to postemergence applications of the pyridyloxyacetic acid herbicides, triclopyr and fluroxypyr, was studied in greenhouse trials. Herbicide tolerance was assessed following a single postemergence application of triclopyr or fluroxypyr.
Seeds from cotton event pDAB4468.18.07.1 were heat treated in a water bath at 82.5° C. for 1 minute and then planted in metro mix 360 media and grown in a greenhouse. The temperatures in the greenhouse averaged 27° C. and the photoperiod was set at 16 hours of light and eight hours of dark, with maximum light intensity. Plants were allowed to grow until the 3 leaf stage of development and a non-randomized study was conducted with three replications and three treatments for each herbicide. Plants were sprayed in a track sprayer calibrated to deliver 187 L/ha of the commercial formulations of triclopyr (Garton 4™, Dow AgroSciences, Indianapolis, Ind.) and fluroxypyr (Starane™, Dow AgroSciences, Indianapolis, Ind.). A non-transformed Coker 310 variety of cotton was used as a negative control. Visual injury assessment was taken 3 DAA (days after application) and 11 DAA comparing each rate of herbicide. Injury was assessed visually as percentage of epinastic cotton-plant foliage using a linear percentage scale […] where 0% represents no visible herbicide injury and 100% represents plant death.

[4] = system: non-transformed Coker 310 variety of cotton; assay: Tolerance to triclopyr and fluroxypyr in greenhouse trials (percent visual injury), negative control plants; type: in vivo; conditions: 3 leaf stage
Procedure: Seeds from cotton event pDAB4468.18.07.1 were heat treated in a water bath at 82.5° C. for 1 minute and then planted in metro mix 360 media and grown in a greenhouse. The temperatures in the greenhouse averaged 27° C. and the photoperiod was set at 16 hours of light and eight hours of dark, with maximum light intensity. Plants were allowed to grow until the 3 leaf stage of development and a non-randomized study was conducted with three replications and three treatments for each herbicide. Plants were sprayed in a track sprayer calibrated to deliver 187 L/ha of the commercial formulations of triclopyr (Garton 4™, Dow AgroSciences, Indianapolis, Ind.) and fluroxypyr (Starane™, Dow AgroSciences, Indianapolis, Ind.). A non-transformed Coker 310 variety of cotton was used as a negative control. Visual injury assessment was taken 3 DAA (days after application) and 11 DAA comparing each rate of herbicide. Injury was assessed visually as percentage of epinastic cotton-plant foliage using a linear percentage scale (1-100%) where 0% represents no visible herbicide injury and 100% represents plant death.

[5] = system: cotton event pDAB4468.18.07.1; assay: Tolerance to glufosinate in field trials (percent visual injury after postemergence application); type: in vivo, Gossypium hirsutum; conditions: for Percent visual injury: postemergence, 6-8 leaf cotton, field
Procedure: Glufosinate tolerance was measured by assessing cotton plants for injury at 2-4 days after application (DAA), 7-9 DAA, 13-19 DAA and 22-29 DAA. […] The ratings were a composite score for any herbicide symptomology including chlorosis, leaf necrosis, stunting and plant death. Herbicide symptomology (where present) was primarily chlorosis and necrosis.
as §1, with “glufosinate ammonium (Ignite 280 SL™, Bayer, Research Triangle, N.C.)” for “2,4-D amine (Weedar 64™, NuFarm, Burr Ridge, Ill.)”, “542, 1084,” for “1120, 2240,”, “2168” for “4480”, “glufosinate” for “2,4-D”, “(542” for “(1120”, “would be expected” for “are known”

In the case of `CNC.O=C(O)COc1ccc(Cl)cc1Cl` [2,4-D], the “result of treatment of non-transformed cotton” value (non-transformed cotton) is given as “plant death”, the “agronomic performance of cotton event after herbicide application vs unsprayed plants” value [1] is given as “not altered” and the “herbicide injury noted in the experiments” value ([2]; 1120-4480 g ae/ha, with the exception of transient epinasty 0-1 DAA) is given as “no agronomically-significant herbicide injury”. For the same molecule, the Percent visual injury ([2]; 1120 g ae/ha, 0-1 DAA) was 5.0%, the Percent visual injury ([2]; 1120 g ae/ha, 7-8 DAA) was 2.3% and the Percent visual injury ([2]; 1120 g ae/ha, 12-16 DAA) was 1.1%. It also gave a Percent visual injury ([2]; 1120 g ae/ha, 24-32 DAA) of 0.0%, a Percent visual injury ([2]; 2240 g ae/ha, 0-1 DAA) of 11.7% and a Percent visual injury ([2]; 2240 g ae/ha, 7-8 DAA) of 4.9%. The Percent visual injury ([2]; 2240 g ae/ha, 12-16 DAA) was 2.7%, the Percent visual injury ([2]; 2240 g ae/ha, 24-32 DAA) was 0.4% and the “crop injury beyond the 7-8 DAA evaluation interval” value ([2]; 4480 g ae/ha (>4× rate required for broad spectrum weed control)) was “little crop injury”. It also gave a Percent visual injury ([2]; 4480 g ae/ha, 0-1 DAA) of 21.0%, a Percent visual injury ([2]; 4480 g ae/ha, 7-8 DAA) of 15.1% and a Percent visual injury ([2]; 4480 g ae/ha, 12-16 DAA) of 8.0%. For the same molecule, the Percent visual injury ([2]; 4480 g ae/ha, 24-32 DAA) was 2.2%.
For `Nc1c(Cl)c(F)nc(OCC(=O)O)c1Cl` [Fluroxypyr, fluroxypyr], the “level of herbicide to which tolerance is provided” value ([3]; in vivo) was “up to 280 g ae/ha”.
In the case of `O=C(O)COc1nc(Cl)c(Cl)cc1Cl` [Triclopyr, triclopyr], the “% Injury” value ([4]; 140 g ae/ha, 3 DAA) is reported as 33.8 a %, the “% Injury” value ([4]; 140 g ae/ha, 11 DAA) is reported as 36.3 b % and the “% Injury” value ([4]; 280 g ae/ha, 3 DAA) is reported as 33.8 a %. The “% Injury” value ([4]; 280 g ae/ha, 11 DAA) was 40.0 ab %, the “% Injury” value ([4]; 560 g ae/ha, 3 DAA) was 36.3 a % and the “% Injury” value ([4]; 560 g ae/ha, 11 DAA) was 48.8 a %. The “tolerance of the plants” value ([3]; 3 DAA, greenhouse) was “moderate levels of tolerance”, the “% Injury” value ([3]; 140 g ae/ha, 3 DAA, greenhouse) was 11.8 b % and the “% Injury” value ([3]; 140 g ae/ha, 11 DAA, greenhouse) was 3.0 a %. For the same molecule, the “% Injury” value ([3]; 280 g ae/ha, 3 DAA, greenhouse) was 17.0 a %, the “% Injury” value ([3]; 280 g ae/ha, 11 DAA, greenhouse) was 6.3 a % and the “% Injury” value ([3]; 560 g ae/ha, 3 DAA, greenhouse) was 19.3 a %. The “% Injury” value ([3]; 560 g ae/ha, 11 DAA, greenhouse) was 3.5 a % and the “tolerance of the plants compared to the non-transformed control” value ([3]; by 11 DAA, recovered from the initial epinastic response, greenhouse) was “robust tolerance”.
In the case of `CP(=O)(O)CCC(N)C(=O)O` (stereo not shown) [glufosinate], the “herbicide injury noted in the experiments” value ([5]; 542-2168 g ae/ha, with the exception of transient chlorosis at 2168 g ae/ha at 2-4 & 7-9 DAA) is reported as “no agronomically-significant herbicide injury”, the Percent visual injury ([5]; 542 g ae/ha, 2-4 DAA) is reported as 3.1% and the Percent visual injury ([5]; 542 g ae/ha, 7-9 DAA) is reported as 2.3%. The Percent visual injury ([5]; 542 g ae/ha, 13-19 DAA) was 0.1%, the Percent visual injury ([5]; 542 g ae/ha, 22-29 DAA) was 0.1% and the Percent visual injury ([5]; 1084 g ae/ha, 2-4 DAA) was 7.6%. It also gave a Percent visual injury ([5]; 1084 g ae/ha, 7-9 DAA) of 4.8%, a Percent visual injury ([5]; 1084 g ae/ha, 13-19 DAA) of 0.1% and a Percent visual injury ([5]; 1084 g ae/ha, 22-29 DAA) of 0.0%. The “crop injury beyond the 7-9 DAA evaluation interval” value ([5]; 2168 g ae/ha (>4× rate required for broad spectrum weed control)) was “little crop injury”, the Percent visual injury ([5]; 2168 g ae/ha, 2-4 DAA) was 14.8% and the Percent visual injury ([5]; 2168 g ae/ha, 7-9 DAA) was 10.8%. For the same molecule, the Percent visual injury ([5]; 2168 g ae/ha, 13-19 DAA) was 2.2%, the Percent visual injury ([5]; 2168 g ae/ha, 22-29 DAA) was 0.3% and the “agronomic performance of cotton event after herbicide application vs unsprayed plants” value [1] was “not altered”.
